Values quoted from earlier work, collected in patent publication US9333159B2, “Topical DNA repair composition” (PHOTOMEDEX, INC., priority 2011, dated 2016).

Settings: known super antioxidants; USDA database value prevails where different

C[N+](C)(C)[C@@H](Cc1c[nH]c(=S)[nH]1)C(=O)[O-] [ergothioneine]
ORAC score: 61,000
